Measured values as given in the supplement of paper PMC8967900.

Key:
Assay in all cases: selective drug sensitivity score (sDSS, relative to normal bone marrow) (sDSS (score)); higher = more potent and effective on the cell line relative to normal bone marrow cells
Details in all cases: 72 h
RCH-ACV = tested on: RCH-ACV
NALM-16 = tested on: NALM-16
COG-LL-317 = tested on: COG-LL-317
NALM-6 = tested on: NALM-6
SEM cells = tested on: SEM cells
CCRF-CEM = tested on: CCRF-CEM
PEER = tested on: PEER
KARPAS-45 = tested on: KARPAS-45
KASUMI-10 = tested on: KASUMI-10
MOLT-4 = tested on: MOLT-4
PF-382 = tested on: PF-382
ALL-SIL = tested on: ALL-SIL
LC4-1 = tested on: LC4-1
MHH-CALL-4 = tested on: MHH-CALL-4
HAL-01 = tested on: HAL-01
DND-41 = tested on: DND-41
COG-LL-319h = tested on: COG-LL-319h
COG-LL-355h = tested on: COG-LL-355h
MN-60 = tested on: MN-60
380 = tested on: 380
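Also: ALL cell lines in 384-well plates, five doses spanning 10,000-fold, each plate scaled between vehicle and 100 µmol/L benzalkonium chloride controls, sDSS an adapted area-under-curve metric.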

Row | SMILES | selective drug sensitivity score (RCH-ACV) | selective drug sensitivity score (NALM-16) | selective drug sensitivity score (COG-LL-317) | selective drug sensitivity score (NALM-6) | selective drug sensitivity score (SEM cells) | selective drug sensitivity score (CCRF-CEM) | selective drug sensitivity score (PEER) | selective drug sensitivity score (KARPAS-45) | selective drug sensitivity score (KASUMI-10) | selective drug sensitivity score (MOLT-4) | selective drug sensitivity score (PF-382) | selective drug sensitivity score (ALL-SIL) | selective drug sensitivity score (LC4-1) | selective drug sensitivity score (MHH-CALL-4) | selective drug sensitivity score (HAL-01) | selective drug sensitivity score (DND-41) | selective drug sensitivity score (COG-LL-319h) | selective drug sensitivity score (COG-LL-355h) | selective drug sensitivity score (MN-60) | selective drug sensitivity score 380
1 | CC(C)Oc1ccc(C(=O)N[C@H](CNC(=O)CN(C)C)Cc2ccc(-c3cn4cccc([C@H](C)O)c4n3)cc2)cc1Cl (top concentration 10000 nM) | 18 | 1.68 | 16.6 | 7.68 | 8.88 | 16.2 | 19.9 | 7.48 | 6.88 | 18.2 | 6.68 | 12.8 | 8.28 | 0.78 | 1.98 | -2.62 | 14.3 | -2.62 | -1.62 | 10.7
2 | CCn1c(-c2nonc2N)nc2cnc(Oc3cccc(NC(=O)c4ccc(OCCN5CCOCC5)cc4)c3)cc21 (top concentration 10000 nM) | 17.1 | -5.44 | 7.46 | 6.76 | 9.36 | 15.8 | 16.6 | 15.2 | -2.74 | 1.86 | 1.66 | 4.06 | 17 | 10.4 | 9.96 | 0.86 | 17.5 | -2.34 | -3.54 | 7.46
3 | CC(C)(C#N)c1cc(Cn2cncn2)cc(C(C)(C)C#N)c1 [Anastrozole] (top concentration 10000 nM) | 0 | 0 | 0 | 0 | 0 | 0 | 0 | 0 | 0 | 0 | 0 | 0 | 0 | 0 | 0 | 2.9 | 0 | 0 | 0 | 0
4 | Cc1sc2c(c1C)C(c1ccc(Cl)cc1)=N[C@@H](CC(=O)Nc1ccc(O)cc1)c1nnc(C)n1-2 [Birabresib] (top concentration 10000 nM) | 12 | 1.52 | 9.12 | 3.72 | 11.6 | 1.22 | -0.08 | 9.42 | 7.02 | -4.68 | 3.42 | 0.02 | 4.92 | 6.02 | -0.78 | 0.92 | 13.5 | 2.42 | 6.72 | -9.68
5 | Nc1ccn([C@@H]2O[C@H](CO)[C@@H](O)[C@@H]2O)c(=O)n1 [Cytarabine] (top concentration 10000 nM) | 28.1 | 8.8 | 27.2 | 25.2 | 15.9 | 25.7 | 12.2 | -7.7 | 1.6 | 19 | 19.1 | 15.1 | 21 | 5.4 | 21.8 | 16.3 | 18.8 | 4.9 | 1.3 | 22.2
6 | COc1cccc2c1C(=O)c1c(O)c3c(c(O)c1C2=O)C[C@@](O)(C(C)=O)C[C@@H]3O[C@H]1C[C@H](N)[C@H](O)[C@H](C)O1 [Daunorubicin] (top concentration 1000 nM) | 12.6 | -2.14 | 14.8 | 6.36 | 6.06 | 9.16 | -3.84 | -0.34 | 9.06 | 7.86 | 1.26 | 1.26 | 6.36 | 7.46 | -2.24 | -0.54 | 16.4 | 5.06 | -0.34 | 13.7
7 | Nc1ncn([C@H]2C[C@H](O)[C@@H](CO)O2)c(=O)n1 [Decitabine] (top concentration 10000 nM) | 10.1 | -2.96 | 14.9 | -3.06 | 1.74 | 4.44 | 2.94 | -6.06 | -3.06 | -0.96 | -1.16 | -3.06 | -0.06 | 0.54 | -1.76 | -4.66 | 10.7 | -0.96 | -5.86 | 9.14
8 | CCN(CC)C(=S)SSC(=S)N(CC)CC [Disulfiram(+CuCl2)] (top concentration 50000 nM) | 5.38 | -2.12 | -2.12 | -2.12 | -2.12 | -2.12 | -2.12 | -2.12 | -1.52 | -2.12 | -0.02 | -2.12 | 7.38 | 3.38 | 16.3 | -2.12 | 18.7 | 1.48 | -2.12 | 1.58
9 | Nc1nc(F)nc2c1ncn2[C@@H]1O[C@H](CO)[C@@H](O)[C@@H]1O [Fludarabine] (top concentration 10000 nM) | 5.9 | -6 | 3.3 | 4.6 | 4 | 2.3 | -9.3 | -10.3 | -0.8 | -1.9 | -6.6 | 3 | 6 | 8.3 | 4 | 5.5 | 8.4 | 5.1 | -4.5 | 6.9
10 | Nc1nc(OCc2cc(Br)cs2)c2[nH]cnc2n1 [Lomeguatrib] (top concentration 10000 nM) | 0.8 | 0 | 0 | 0 | 0 | 0 | 0 | 0 | 0 | 0 | 0 | 0 | 0.8 | 0 | 0 | 0 | 0 | 1 | 0 | 0
11 | Cc1cc(OCc2nnc(SC3CCCC3)n2-c2cccnc2)ccc1-c1ccc(S(C)(=O)=O)cc1 [NMS-873] (top concentration 10000 nM) | 11.7 | 2.86 | 0.16 | 7.36 | 5.06 | 1.46 | 22.9 | 11.4 | -0.14 | 17.4 | 11.8 | 8.96 | 4.76 | 6.96 | 1.06 | 4.46 | 10.3 | 4.56 | 12.1 | -4.24
12 | COC(=O)c1ccc2c(c1)NC(=O)/C2=C(\Nc1ccc(N(C)C(=O)CN2CCN(C)CC2)cc1)c1ccccc1 [Nintedanib] (top concentration 10000 nM) | 3.64 | -1.76 | -1.76 | -2.36 | 16 | -1.46 | 5.94 | 0.54 | 14.1 | -1.96 | 5.04 | 14.3 | -4.36 | -1.66 | 3.34 | -3.16 | 8.74 | -0.16 | -6.36 | -4.56
13 | O=C(c1cc(Cc2n[nH]c(=O)c3ccccc23)ccc1F)N1CCN(C(=O)C2CC2)CC1 [Olaparib] (top concentration 10000 nM) | 7.38 | -3.42 | 13 | 1.48 | 5.18 | 3.78 | 1.28 | 0.38 | 2.88 | 4.18 | -0.52 | -0.02 | 2.68 | 8.68 | 4.88 | 1.28 | 11.7 | 3.38 | -2.42 | 26.8
14 | O=C(O)C(=O)O.[NH-][C@@H]1CCCC[C@H]1[NH-].[Pt+2] [Oxaliplatin] (top concentration 100000 nM) | 11.6 | -1.48 | 17.2 | 6.12 | 8.52 | 8.22 | 0.62 | -0.08 | 14.2 | 12.4 | -0.28 | 3.42 | 10.6 | 12.1 | 15.3 | 1.42 | 15.6 | 4.92 | -0.38 | 10.6
15 | CS(=O)(=O)N1CCN(Cc2cc3nc(-c4cccc5[nH]ncc45)nc(N4CCOCC4)c3s2)CC1 [Pictilisib] (top concentration 10000 nM) | 26.2 | 4.66 | -0.94 | 12.9 | 9.66 | 5.36 | -2.24 | 6.36 | 3.96 | 9.36 | 6.26 | 4.56 | 0.16 | 9.26 | 14.4 | -1.44 | 5.56 | 12 | 2.96 | 16.4
16 | CCOC(=O)C1=CCCC[C@H]1S(=O)(=O)Nc1ccc(F)cc1Cl [Resatorvid] (top concentration 10000 nM) | 0 | 0 | 0 | 0 | 0 | 0 | 0 | 0 | 0 | 0 | 0 | 0 | 0 | 0 | 0 | 0 | 0 | 0 | 0 | 0
17 | CO[C@H]1C[C@@H]2CC[C@@H](C)[C@@](O)(O2)C(=O)C(=O)N2CCCC[C@H]2C(=O)O[C@H]([C@H](C)C[C@@H]2CC[C@@H](OP(C)(C)=O)[C@H](OC)C2)CC(=O)[C@H](C)/C=C(\C)[C@@H](O)[C@@H](OC)C(=O)[C@H](C)C[C@H](C)/C=C/C=C/C=C/1C [Ridaforolimus] (top concentration 100 nM) | 18.9 | -0.04 | 2.76 | -4.84 | 5.66 | 7.36 | 7.26 | 1.56 | -4.84 | -2.04 | 5.86 | 3.06 | 4.46 | -4.44 | -4.34 | -2.54 | 4.76 | -2.14 | 5.16 | 24.5
18 | CCc1c2c(nc3ccc(O)cc13)-c1cc3c(c(=O)n1C2)COC(=O)[C@]3(O)CC [SN-38] (top concentration 10000 nM) | 27.6 | 13.4 | 27.6 | 22.1 | 25.4 | 27.6 | 12.8 | 3.98 | 18.9 | 28.2 | 24.8 | 27.3 | 27.1 | 19.7 | 21.8 | 25.5 | 26.7 | 14.7 | 7.28 | 27
